The NIST ThermoML archive (doi:10.1021/je300775u)

Assay: xn = mol fraction of the nth substance listed
Details: 101 kPa, Liquid; for speed of sound: Pulse-echo method; for mass density: Vibrating tube method

ClCBr [bromochloromethane] + ClC(Cl)(Cl)Br
Details	mass density, 293.15 K [kg/m3]	mass density, 298.15 K [kg/m3]	mass density, 303.15 K [kg/m3]	mass density, 308.15 K [kg/m3]	mass density, 313.15 K [kg/m3]	speed of sound, 293.15 K [m/s]	speed of sound, 298.15 K [m/s]	speed of sound, 303.15 K [m/s]	speed of sound, 308.15 K [m/s]	speed of sound, 313.15 K [m/s]
x2 = 0	1933.23	1921.71	1910.15	1898.51	1886.82	1001.2	986.1	971	955.9	940.8
x2 = 0.052	1938.2	1926.72	1915.19	1903.6	1891.94	992.8	977.9	962.9	947.9	933
x2 = 0.103	1942.79	1931.34	1919.85	1908.3	1896.67	985.2	970.4	955.5	940.7	925.9
x2 = 0.1538	1947.34	1935.88	1924.46	1912.93	1901.44	978.4	963.6	948.9	934.2	919.1
x2 = 0.2031	1951.55	1940.16	1928.76	1917.27	1905.74	972.2	957.5	942.8	928.1	913.6
x2 = 0.2551	1956.05	1944.71	1933.31	1921.86	1910.36	966.1	951.6	937	922.6	908.1
x2 = 0.305	1960.19	1948.82	1937.49	1926.18	1914.72	960.7	946.3	931.8	917.3	903
x2 = 0.3522	1963.98	1952.66	1941.28	1929.99	1918.58	956.4	942.1	927.8	913.5	898.9
x2 = 0.4063	1968.54	1957.3	1946.02	1934.68	1923.3	950.8	936.7	922.4	908.2	894
x2 = 0.4553	1972.41	1961.2	1949.96	1938.65	1927.29	946.7	932.6	918.4	904.2	890.3
x2 = 0.5058	1976.4	1965.21	1954	1942.75	1931.42	942.7	928.6	914.5	900.5	886.5
x2 = 0.5665	1981.04	1969.89	1958.74	1947.52	1936.26	938.2	924.2	910.3	896.4	882.6
x2 = 0.6027	1983.79	1972.67	1961.52	1950.31	1939.1	935.8	921.9	908	894.1	880.3
x2 = 0.6567	1987.81	1976.74	1965.63	1954.45	1943.26	932.3	918.5	904.7	891	877.2
x2 = 0.7046	1991.31	1980.21	1969.15	1958.12	1946.95	929.6	915.8	902	888.3	874.7
x2 = 0.7543	1994.91	1983.88	1972.83	1961.75	1950.61	926.9	913.2	899.5	885.9	872.3
x2 = 0.8025	1998.2	1987.2	1976.2	1965.14	1954.05	924.5	910.8	897.2	883.7	870.2
x2 = 0.8516	2001.94	1990.96	1979.93	1968.92	1957.85	922.3	908.7	895.1	881.6	868.3
x2 = 0.8996	2005.35	1994.38	1983.39	1972.42	1961.38	920.3	906.8	893.3	879.9	866.5
x2 = 0.9228	2007.14	1996.17	1985.15	1974.22	1963.19	919.8	906.3	892.9	879.4	865.9
